Source: article PMC11211886 (Frontiers in Pharmacology, 2024)
Several values for one entry are separate records, joined by “and”; a condition that tells them apart may be missing. Identical values can stand only once.

Assays:
Assay type in all cases: in vitro ADME
CYP2D6 = biological target: T1, CYP2D6 (Homo sapiens, UniProt P10635); assay: Reversible CYP inhibition in HLM, CYP2D6 (dextromethorphan); conditions: for enzyme activity remaining: CYP2D6, HLM
T1 construct: tissue Life Technologies (Durham, NC, USA); host or cells: human liver microsomes
Procedure: (§1) The markers used to determine the activities of CYP isoforms were phenacetin O-deethylation for CYP1A2 (probe substrate: 50 µM phenacetin), bupropion hydroxylation for CYP2B6 (probe substrate: 70 µM bupropion), paclitaxel 6α-hydroxylation for CYP2C8 (probe substrate: 10 µM paclitaxel), diclofenac 4′-hydroxylation for CYP2C9 (probe substrate: 5 µM diclofenac), S-(+)-mephenytoin 4′-hydroxylation for CYP2C19 (probe substrate: 20 µM S-(+)-mephenytoin), dextromethorphan O-demethylation for CYP2D6 (probe substrate: 6 µM dextromethorphan), chlorzoxazone 6′-hydroxylation for CYP2E1 (probe substrate: 70 µM chlorzoxazone), and testosterone 6β-hydroxylation and midazolam 1′-hydroxylation for CYP3A4/5 (probe substrate: 45 µM testosterone and 5 µM midazolam). […] Alpha-naphthoflavone (0.04 µM), 2-phenyl-2-(1-piperidinyl)propane (5 µM), quercetin (1 µM), sulfaphenazole (0.5 µM), ticlopidine (4 µM), quinidine (0.2 µM), diethyldithiocarbamate (20 µM), and ketoconazole (0.05 µM) were used as positive inhibitors of CYP1A2, 2B6, 2C8, 2C9, 2C19, 2D6, 2E1, and 3A4, respectively. The vehicle control was prepared in the same composition as inhibitor solutions but free of inhibitors. The concentrations of probe substrates were close to Km values that were determined in-house and within the range recommended by the FDA ([Huang et al., 2007]). Reaction mixtures were incubated at 37°C for 5, 20, or 30 min, depending on the probe substrates of CYP isoforms. The reactions were terminated by adding cold acetonitrile containing IS, and the terminated incubation mixtures were centrifuged at 3,000 g for 10 min before LC-MS/MS analysis.

CYP3A4 mRNA = assay: CYP induction in human hepatocytes, CYP3A4 mRNA (RT-PCR)
Procedure: […] […] […] Enzyme activity for each CYP isoform was reported as a fold change over vehicle control and the percent of positive control (detailed calculation in Supplementary 1.1). Hepatocytes were harvested with a lysis buffer from RNeasy 96 Kit (Qiagen Inc., Germantown, MD, USA) to isolate RNA, which was analyzed by real-time quantitative polymerase chain reaction (RT-PCR). […] Emax (the maximal observed induction) and EC50 (the concentration that supports half-maximal induction) were estimated by non-linear regression of fold increase in CYP mRNA expression versus concentration plots.
% of positive control = [(fold change in treated sample)-1] / [(fold change in positive control)-1] × 100

CYP2C9 = biological target: T2, CYP2C9 (Homo sapiens, UniProt P11712); assay: Reversible CYP inhibition in HLM, CYP2C9 (diclofenac); conditions: for enzyme activity remaining: CYP2C9, HLM
T2 construct: tissue Life Technologies (Durham, NC, USA); host or cells: human liver microsomes
Procedure: as §1

[1] = HLM, reversible, without pre-incubation

T1 sequence (P10635 whole entry): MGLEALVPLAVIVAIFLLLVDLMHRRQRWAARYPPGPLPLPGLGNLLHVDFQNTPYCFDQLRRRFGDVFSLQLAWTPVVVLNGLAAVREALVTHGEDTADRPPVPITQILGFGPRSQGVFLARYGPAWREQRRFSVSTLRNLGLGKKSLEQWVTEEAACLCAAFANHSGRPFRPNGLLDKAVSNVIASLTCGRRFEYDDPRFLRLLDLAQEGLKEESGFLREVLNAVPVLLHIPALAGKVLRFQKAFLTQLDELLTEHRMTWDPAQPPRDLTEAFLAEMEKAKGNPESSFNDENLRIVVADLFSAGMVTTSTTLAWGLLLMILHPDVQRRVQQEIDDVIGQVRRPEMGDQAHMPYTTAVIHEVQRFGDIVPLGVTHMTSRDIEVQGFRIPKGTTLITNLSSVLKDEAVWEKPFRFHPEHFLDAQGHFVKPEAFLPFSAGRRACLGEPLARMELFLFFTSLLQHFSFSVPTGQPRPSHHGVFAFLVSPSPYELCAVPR
T2 sequence (P11712 whole entry): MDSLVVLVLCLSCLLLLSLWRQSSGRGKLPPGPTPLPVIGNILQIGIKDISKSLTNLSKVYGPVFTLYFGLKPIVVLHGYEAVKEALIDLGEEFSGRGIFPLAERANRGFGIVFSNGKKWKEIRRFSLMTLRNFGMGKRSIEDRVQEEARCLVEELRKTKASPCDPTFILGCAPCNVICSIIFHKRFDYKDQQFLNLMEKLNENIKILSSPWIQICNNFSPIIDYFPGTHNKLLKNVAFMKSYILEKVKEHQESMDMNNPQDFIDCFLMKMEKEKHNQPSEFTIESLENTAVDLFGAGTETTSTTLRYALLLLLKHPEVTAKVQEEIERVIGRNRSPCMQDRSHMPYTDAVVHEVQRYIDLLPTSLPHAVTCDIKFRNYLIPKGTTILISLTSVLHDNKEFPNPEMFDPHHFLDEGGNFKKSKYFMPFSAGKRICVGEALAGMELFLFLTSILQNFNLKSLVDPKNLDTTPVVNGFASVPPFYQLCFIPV

`C[C@H](Nc1ncnc(N)c1C#N)c1cc2ncc(Cl)n2nc1-c1ccccc1` [Amdizalisib] was tested, and the enzyme activity remaining (CYP2D6; 0.08 μM) was 103%, the enzyme activity remaining (CYP2D6; 0.4 μM) was 103% and 107% and the enzyme activity remaining (CYP2D6; 2 μM) was 104% and 98.0%. For the same compound, the enzyme activity remaining (CYP2D6; 10 μM) was 98.0% and 98.6%, the enzyme activity remaining (CYP2D6; 50 μM) was 80.0% and 84.5% and the IC50 (CYP2D6; [1]) was over 50 µM. The “R3 value (CYP3A4 induction, basic kinetic model)” value (CYP3A4 mRNA) was at most 0.8, the “induction on CYP3A4 mRNA expression” value (CYP3A4 mRNA; 20 uM) was >2-fold induction on CYP1A2, 2B6, 3A4, 2C9 mRNA expression at 20 uM and the “Gene expression Percent of PC (%)” value (CYP3A4 mRNA; CYP3A4, donor seven, 1 µM) was 8.40%. The “Gene expression Percent of PC (%)” value (CYP3A4 mRNA; CYP3A4, donor seven, 3 µM) was 2.70%, the “Gene expression Percent of PC (%)” value (CYP3A4 mRNA; CYP3A4, donor seven, 10 µM) was 46.6% and the “Gene expression Percent of PC (%)” value (CYP3A4 mRNA; CYP3A4, donor seven, 20 µM) was 23.3%. For the same compound, the “Gene expression Percent of PC (%)” value (CYP3A4 mRNA; CYP3A4, donor seven, 30 µM) was 53.6%, the “Gene expression Percent of PC (%)” value (CYP3A4 mRNA; CYP3A4, donor six, 1 µM) was 1.00% and the “Gene expression Percent of PC (%)” value (CYP3A4 mRNA; CYP3A4, donor six, 3 µM) was 1.60%. The “Gene expression Percent of PC (%)” value (CYP3A4 mRNA; CYP3A4, donor six, 10 µM) was 11.9%, the “Gene expression Percent of PC (%)” value (CYP3A4 mRNA; CYP3A4, donor six, 20 µM) was 21.4% and the “Gene expression Percent of PC (%)” value (CYP3A4 mRNA; CYP3A4, donor six, 30 µM) was 21.9%. For the same compound, the “Gene expression Percent of PC (%)” value (CYP3A4 mRNA; CYP3A4, donor two, 1 µM) was 1.30%, the “Gene expression Percent of PC (%)” value (CYP3A4 mRNA; CYP3A4, donor two, 3 µM) was 0.60% and the “Gene expression Percent of PC (%)” value (CYP3A4 mRNA; CYP3A4, donor two, 10 µM) was 15.9%. For the same compound, the “Gene expression Percent of PC (%)” value (CYP3A4 mRNA; CYP3A4, donor two, 20 µM) was 13.4%, the “Gene expression Percent of PC (%)” value (CYP3A4 mRNA; CYP3A4, donor two, 30 µM) was 28.1% and the “Emax, CYP3A4 expression” value (CYP3A4 mRNA; donor seven) was 6.97 fold. The “Emax, CYP3A4 expression” value (CYP3A4 mRNA; donor six) was 35.7 fold, the “Emax, CYP3A4 expression” value (CYP3A4 mRNA; donor two) was over 26.5 fold and the enzyme activity remaining (CYP2C9; 0.08 μM) was 98.3% and 99.7%. For the same compound, the enzyme activity remaining (CYP2C9; 0.4 μM) was 94.2% and 95.6%, the enzyme activity remaining (CYP2C9; 2 μM) was 82.6% and the enzyme activity remaining (CYP2C9; 10 μM) was 53.7% and 52.8%. For the same compound, the enzyme activity remaining (CYP2C9; 50 μM) was 17.2% and 16.0% and the IC50 (CYP2C9; [1]) was 10.7 µM.
